Assay results reported in patent publication US10111892B2, “Anti-cancer agent” (priority 2009, dated 2018).

Experiments:
[1] = system: KB (oral squamous cell carcinoma); assay: In vitro anti-tumor activity test (MTT), KB cells; format: cell-based; conditions: 48 hours of culture
Procedure: (§1) [In Vitro Anti-Tumor Activity Test]
(§2) The phosphine transition metal complexes obtained in the examples and the comparative examples were subjected to an in vitro anti-tumor activity test. Specifically, KB (oral squamous cell carcinoma) and A375 (malignant melanoma) were used as cancer cells, and these cells were cultured in an incubator at 37° C. in a culture medium (RPMI-1640 or DEME) to which 10% inactivated fetal calf serum, L-glutamine, sodium pyruvate, 1×10^5 U/L of penicillin, and 100 mg/L of streptomycin had been supplemented. The cells were added such that each well contained 2×10^5 cells. Subsequently, the phosphine transition metal complex dissolved in dimethylsulfoxide was added to the medium and cultured for 48 hours. After the 48 hours of culture, a 5 mg/ml (3,[4,5-dimethylthiazol-2-yl]-2,5-diphenyltetrazolium bromide MTT) solution was added at 20 μl to each well, followed by culture for 3 to 4 hours in an incubator. Thereafter, 100 μl of a solution was further added to each well to completely solubilize the generated formazan crystals. The absorbance of the resultant at 492 nm was then measured, and IC50 was calculated.

[2] = system: A375 (malignant melanoma); assay: In vitro anti-tumor activity test (MTT), A375 cells; format: cell-based; conditions: 48 hours of culture
Procedure: as §1, §2

KM rats = assay: Toxicity test, single oral administration to rats; format: in vivo; conditions: for Oral administration LD50: male and female KM rats, single oral dose in corn oil, observed to the fourteenth day
Procedure: Toxicity caused when the phosphine transition metal complexes obtained in the examples and the comparative examples were orally administered to rats was tested. Specifically, male and female KM rats were quarantined and raised while being acclimated, and then the selected 20 rats in total including 10 male rats and 10 female rats were formed into a group. The phosphine transition metal complexes obtained in the examples and comparative examples were orally administered once to rats which were fasted over night before the administration and whose weights were recorded, by using corn oil as a solvent and with a design such that a group showing sufficient fatal cases was included to determine LD50.

Compound	In vitro anti-tumor activity IC50, KB [1]	In vitro anti-tumor activity IC50, A375 [2]	Oral administration LD50 (KM rats)	toxicity (in words) (KM rats; oral administration to rats, compared with the other complexes)
Bis(2,3-bis(tert-butylmethylphosphino)quinoxaline) gold(I) chloride [Example 2]	1.03 µg/mL	1.94 µg/mL	97.44 mg/kg	
CP(c1nc2ccccc2nc1P(C)C(C)(C)C)C(C)(C)C.CP(c1nc2ccccc2nc1P(C)C(C)(C)C)C(C)(C)C.[Au+].[Cl-] (stereo not shown) [Example 3, Bis(2,3-bis(tert-butylmethylphosphino)quinoxaline)gold(I) chloride]	0.97 µg/mL	1.22 µg/mL	118.66 mg/kg	
CP(c1nc2ccccc2nc1P(C)C(C)(C)C)C(C)(C)C.CP(c1nc2ccccc2nc1P(C)C(C)(C)C)C(C)(C)C.[Au+].[Cl-] (stereo not shown) [Comparative Example 1, Bis(2,3-bis(tert-butylmethylphosphino)quinoxaline)gold(I) chloride, reference compound]	1.11 µg/mL	2.26 µg/mL	90.99 mg/kg	relatively high
CP(c1nc2ccccc2nc1P(C)C(C)(C)C)C(C)(C)C.CP(c1nc2ccccc2nc1P(C)C(C)(C)C)C(C)(C)C.[Au+].[Cl-] (stereo not shown) [Example 1, bis(2,3-bis(tert-butylmethylphosphino)quinoxaline)gold(I) chloride]	0.94 µg/mL	1.13 µg/mL	134.37 mg/kg	
